Assay results as given in US6342508B1, “N-hydroxy-2-(Alkyl,Aryl or Heteroaryl sulfanyl, sulfinyl or sulfonyl) 3-substituted alkyl, aryl or heteroarylamides as matrix metalloproteinase inhibitors” (American Cyanamid Company, priority 1997, dated 2002).
Read-outs that look alike come from different tables or passages of the source. Blank lines part the entries; values can stand above or below the compound they belong to.

Columns and labels:
[1] = target: T1, MMP 1 (Homo sapiens, UniProt P03956); assay: In Vitro Collagenase Assay (human recombinant fibroblast collagenase, fluorogenic peptide substrate); type: biochemical; conditions: for IC50: read-out: MMP 1 IC 50
T1 construct: human recombinant fibroblast collagenase (truncated mw=18,828, WAR, Radnor)
T1 sequence (P03956 100-269 limits assumed): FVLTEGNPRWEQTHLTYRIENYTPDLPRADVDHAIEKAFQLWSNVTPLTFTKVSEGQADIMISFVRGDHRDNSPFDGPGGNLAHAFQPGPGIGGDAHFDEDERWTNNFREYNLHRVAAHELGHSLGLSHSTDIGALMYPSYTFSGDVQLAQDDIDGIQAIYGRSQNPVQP
Experimental: The assay is based on the cleavage of a peptide substrate ((Dnp-Pro-Cha-Gly-Cys(Me)-His-Ala-Lys(NMa)-NH2), Peptide International Inc.) by collagenase releasing the fluorescent NMa group which is quantitated on the fluorometer. Dnp quenches the NMa fluorescence in the intact substrate. […] Substrate is dissolved in methanol and stored frozen in 1 mM aliquots. […] For the assay, substrate is dissolved in HCBC buffer to a final concentration of 10 μM and collagenase to a final concentration of 5 nM. Compounds are dissolved in methanol, DMSO, or HCBC. The methanol and DMSO are diluted in HCBC to <1.0%. Compounds are added to the 96 well plate containing enzyme and the reaction is started by the addition of substrate.
The slope of the line is calculated and represents the reaction rate.
The mean (x±sem) of the control rate is calculated and compared for statistical significance (p<0.05) with drug-related rates using Dunnett's multiple comparison test.

[2] = target: T2, MMP 9 (Homo sapiens, UniProt P14780); assay: In Vitro Gelatinase Assay (human neutrophil gelatinase B, thiopeptide substrate/DTNB); type: biochemical
T2 construct: from tissue; host or cells: human neutrophils
T2 sequence (P14780 94-707): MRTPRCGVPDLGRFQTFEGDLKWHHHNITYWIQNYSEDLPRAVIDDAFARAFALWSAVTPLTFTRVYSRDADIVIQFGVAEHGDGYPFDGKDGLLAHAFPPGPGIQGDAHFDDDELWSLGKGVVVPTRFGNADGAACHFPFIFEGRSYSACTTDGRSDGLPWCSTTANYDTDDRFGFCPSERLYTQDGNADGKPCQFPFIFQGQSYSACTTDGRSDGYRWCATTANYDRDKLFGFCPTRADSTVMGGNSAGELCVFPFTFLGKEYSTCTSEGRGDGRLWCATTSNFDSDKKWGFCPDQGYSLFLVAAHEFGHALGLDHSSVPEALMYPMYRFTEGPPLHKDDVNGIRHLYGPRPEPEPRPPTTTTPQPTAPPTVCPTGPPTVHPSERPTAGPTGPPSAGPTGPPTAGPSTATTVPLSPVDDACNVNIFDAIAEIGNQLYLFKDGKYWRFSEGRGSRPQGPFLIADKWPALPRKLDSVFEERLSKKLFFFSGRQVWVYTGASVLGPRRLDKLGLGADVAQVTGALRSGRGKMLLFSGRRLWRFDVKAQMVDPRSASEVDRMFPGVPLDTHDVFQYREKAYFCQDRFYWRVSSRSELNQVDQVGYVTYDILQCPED
Experimental: The assay is based on the cleavage of the thiopeptide substrate ((Ac-Pro-Leu-Gly(2 Mercapto-4 methyl-pentanoyl)-Leu-Gly-OEt), Bachem Bioscience) by the enzyme, gelatinase, releasing the substrate product which reacts colorimetrically with DTNB ((5,5′-dithio-bis(2-nitro-benzoic acid)). The enzyne activity is measured by the rate of the color increase. The thiopeptide substrate is made up fresh as a 20 mM stock in 100% DMSO and the DTNB is dissolved in 100% DMSO as a 100 mM stock and stored in dark at room temperature. Both the substrate and DTNB are diluted together to 1 mM with substrate buffer (50 mM HEPES pH 7.5, 5 mM CaCl2) before use.
The increase in OD405 is plotted and the slope of the line is calculated which represents the reaction rate.
The mean (x±sem) of the control rate is calculated and compared for statistical significance (p<0.05) with drug-treated rates using Dunnett's multiple comparison test.

[3] = target: T3, TACE (Homo sapiens, UniProt P78536); assay: Procedure for Measuring TACE Inhibition (fluorescent peptidyl substrate); type: biochemical; conditions: for IC50: read-out: TACE IC 50; for inhibition at 1 µM: read-out: TACE % inhibition at 1 micromolar
T3 construct: purchased Immunex
T3 sequence (P78536 215-824): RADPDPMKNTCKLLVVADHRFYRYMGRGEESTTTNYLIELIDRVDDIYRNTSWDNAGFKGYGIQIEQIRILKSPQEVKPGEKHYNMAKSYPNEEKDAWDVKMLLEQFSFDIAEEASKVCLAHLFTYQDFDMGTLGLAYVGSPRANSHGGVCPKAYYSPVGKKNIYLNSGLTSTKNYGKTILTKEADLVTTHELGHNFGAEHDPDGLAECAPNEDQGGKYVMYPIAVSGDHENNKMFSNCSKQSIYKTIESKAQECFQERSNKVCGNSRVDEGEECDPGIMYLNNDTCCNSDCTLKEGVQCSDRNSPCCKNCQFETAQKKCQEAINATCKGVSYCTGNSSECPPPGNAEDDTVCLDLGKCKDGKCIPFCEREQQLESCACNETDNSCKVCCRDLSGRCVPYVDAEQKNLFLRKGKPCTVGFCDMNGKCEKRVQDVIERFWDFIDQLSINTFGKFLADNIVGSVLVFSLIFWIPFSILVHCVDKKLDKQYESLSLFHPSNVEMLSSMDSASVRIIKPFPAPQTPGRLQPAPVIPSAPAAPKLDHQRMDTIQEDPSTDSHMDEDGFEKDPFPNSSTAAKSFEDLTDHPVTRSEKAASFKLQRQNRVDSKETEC
Experimental: Using 96-well black microtiter plates, each well recieves a solution composed of 10 μL TACE (Immunex, final concentration 1 μg/mL), 70 μL Tris buffer, pH 7.4 containing 10% glycerol (final concentration 10 mM), and 10 μL of test compound solution in DMSO (final concentration, DMSO concentration <1%) and incubated for 10 minutes at room temperature. The reaction is initiated by addition of a fluorescent peptidyl substrate (final concentration 100 μM) to each well and then shaking on a shaker for 5 sec. The reaction is read (excitation 340 nm, emission 420 nm) for 10 min. and the increase in fluorescence over time is plotted as a linear line. The slope of the line is calculated and represents the reaction rate. […] The mean (x±sem) of the control rate is calculated and compared for statistical significance (p<0.05) with drug-treated rates using Dunnett's multiple comparison test.

[4] = target: T4, MMP 13 (Homo sapiens, UniProt P45452); assay: MMP 13 inhibition (standard/manual test); type: biochemical
[5] = target: T4, MMP 13; assay: MMP 13 inhibition (HTS); type: biochemical

MMP 1 % inhibition at 1 micromolar [1]: 99.1% | MMP 9 % inhibition at 1 micromolar [2]: 79.1% | TACE % inhibition at 1 micromolar [3]: 51.1%
Compound: CC(Cc1ccccc1)(C(=O)NO)S(=O)(=O)c1cccs1 (centres unmarked) [Example 48, 2-Methyl-3-phenyl-2-(thiophene-2-sulfonyl)-propionic acid hydroxamide]

IC50 ([2]; read-out: MMP 9 IC 50): 346 nM | melting point: 135 °C | IC50 ([4]; read-out: MMP 13 IC 50): 308 nM
Compound: COc1ccc([S+]([O-])C(C(=O)NO)c2ccccc2)cc1 (centres unmarked) [Example 8, N-Hydroxy-2-(4-methoxy-benzenesulfinyl)-2-phenyl-acetamide]

IC50 [1]: 297 nM | IC50 ([2]; read-out: MMP 9 IC 50): 4.3 nM | TACE % inhibition at 1 micromolar [3]: 41% | IC50 ([4]; read-out: MMP 13 IC 50): 3.6 nM
Compound: CCN(CC)CCOc1cccc(CC(C)(C(=O)NO)S(=O)(=O)c2ccc(OC)cc2)c1 (centres unmarked) [Example 29, N-Hydroxy-2-(4-methoxy-benzenesulfonyl)-2-methyl-3-[3-(2-N,N-diethylamino-ethoxy)-phenyl]-propionamide]

MMP 1 % inhibition at 1 micromolar [1]: 9% | MMP 9 % inhibition at 1 micromolar [2]: 31.6% | IC50 [3]: 87 nM | MMP 13 % inhibition at 1 micromolar [4]: 14.3%
Compound: CCCCCCC(Sc1ccc(OC)cc1)C(=O)NO (centres unmarked) [Example 37, 2-(4-Methoxy-benzenesulfanyl)-octanoic acid hydroxyamide]

inhibition at 0.2 µM ([5]; read-out: MMP 13 % inhibition at 0.2 μM (HTS), 0.2 μM): 91% | IC50 ([2]; solid phase compounds table, read-out: MMP 9): 213 nM | IC50 ([4]; manual, nM): 255 nM
Compound: CC(=O)Nc1ccc(SC(Cc2ccccc2)C(=O)NO)cc1 (centres unmarked) [Example 128, 2-(4-Acetylamino-benzenesulfanyl)-N-hydroxy-3-phenyl-propionamide]

IC50 [1]: 368 nM | IC50 ([2]; read-out: MMP 9 IC 50): 5 nM | melting point: 168 to 170 °C
Compound: COc1ccc(S(=O)(=O)C2(C(=O)NO)CCN(Cc3ccc4ccccc4c3)CC2)cc1 [Example 87, 4-(4methoxy-benzene-sulfonyl)-1-napthalene-2-yl-methylpiperidine-4-carboxylic acid hydroxamide]

MMP 13 % inhibition at 36 nM (HTS) [5]: 34% | TACE % inhibition at 1 mM [3]: 29.4%
Compound: CCCCCCC(Sc1nc(-c2ccccc2)cs1)C(=O)NO (centres unmarked) [Example 172, 2-(4-Phenyl-thiazole-2-sulfanyl)-octanoic acid hydroxyamide]

IC50 [1]: 100 nM | inhibition at 1 µM [3]: 15.5% | melting point: 58 to 59 °C
Compound: COc1ccc(CS(=O)(=O)C(C)(Cc2ccccc2)C(=O)NO)cc1 (centres unmarked) [Example 41, N-Hydroxy-2-(4-methoxy-phenylmethanesulfonyl)-2-methyl-3-phenyl propionic acid hydroxamide]

MMP 13 % inhibition at 36 nM (HTS) [5]: 48% | TACE % inhibition at 1 mM [3]: 40.3%
Compound: CCCCCCC(C(=O)NO)S(=O)(=O)c1ccc(NS(=O)(=O)c2cccc3nsnc23)cc1 (centres unmarked) [Example 240, Benzo[1,2,5]thiadiazole-4-sulfonic acid 4-(1-hydrxycarbamoyl-heptylsulfonyl)-hydroxyamide]

MMP 13 % inhibition at 0.2 μM (HTS) [5]: 83% | TACE % inhibition at 1 mM [3]: 13.35%
Compound: O=C(CCC(Sc1ccccc1C(F)(F)F)C(=O)NO)NO (centres unmarked) [Example 137, 4-Hydroxycarbamoyl-4-(2-trifluoromethyl-benzenesulfanyl)-butyric acid hydroxyamide]

Second part, the compound before the results:

Compound: CCCCC[C@H](C(=O)NO)[S@+]([O-])c1ccc(OC)cc1 (relative stereo) [Example 81a, 2R*-(4-methoxyphenyl-S*-sulfinyl)-heptanoic acid hydroxyamide]
IC50 [1]: 2040 nM | IC50 ([2]; read-out: MMP 9 IC 50): 231 nM | IC50 [3]: 27.1 nM | IC50 ([4]; read-out: MMP 13 IC 50): 43.9 nM

Compound: COc1ccc(S(=O)(=O)C2(C(=O)NO)CCN(CC=C(C)C)CC2)cc1 [Example 89, 4-(4methoxy-benzene-sulfonyl)-1-(3-methyl-but-2-enyl)-piperdine-4-carboxylic acid hydroxamide]
IC50 [1]: 1390 nM | IC50 ([2]; read-out: MMP 9 IC 50): 38.6 nM | TACE % inhibition at 1 micromolar [3]: 49% | IC50 ([4]; read-out: MMP 13 IC 50): 7 nM

Compound: 2-(4-Methoxy-benzenesulfonyl)-4methyl-2-pyridin-ylmethyl-pentanoic acid hydroxyamide [Example 66]
IC50 [1]: 1600 nM | IC50 ([2]; read-out: MMP 9 IC 50): 131 nM | TACE % inhibition at 1 micromolar [3]: 42.33% | IC50 ([4]; read-out: MMP 13 IC 50): 226 nM

Compound: CC(C(=O)O)S(=O)(=O)CCCCCCCCS(=O)(=O)C(C)C(=O)NO (centres unmarked) [Example 49, 2-[8-(1-carboxy-ethanesfonyl)-octane-1-sulfonyl]-propionic acid hydroxyamide]
MMP 1 % inhibition at 1 micromolar [1]: 10.1% | MMP 9 % inhibition at 1 micromolar [2]: 23.7% | MMP 13 % inhibition at 1 micromolar [4]: 54.6%

Compound: COc1ccc(S(=O)(=O)C(C)(CC=C(C)C)C(=O)NO)cc1 (centres unmarked) [Example 13, 2-(4-Methoxy-benzenesulfonyl)-2-dimethyl-hex-4-enoic acid hydroxyamide]
IC50 [1]: 239 nM | IC50 ([2]; read-out: MMP 9 IC 50): 11 nM | IC50 [3]: 626 nM | IC50 ([4]; read-out: MMP 13 IC 50): 14 nM

Compound: CC(Cc1ccc(OCCN2CCCCC2)cc1)(C(=O)NO)S(=O)(=O)c1ccc(Br)cc1 (centres unmarked) [Example 50, 2-(4Bromo-benzenesulfonyl)-2-methyl-3-[4-(2-piperdine-1-yl-ethoxy)-phenyl]-propionic acid hydroxanide]
IC50 [1]: 51.1 nM | IC50 ([2]; read-out: MMP 9 IC 50): 58.4 nM | IC50 ([4]; read-out: MMP 13 IC 50): 10.6 nM

Compound: CC(Cc1ccc(OCCN2CCCCC2)cc1)(C(=O)NO)S(=O)(=O)c1cccs1 (centres unmarked) [Example 45, 2-Methyl-3-4-(2-piperdin-1-yl-ethoxy)-phenyl-2-(thiophene-2-sulfonyl)-propionic acid hydroxamide]
MMP 1 % inhibition at 1 micromolar [1]: 49% | MMP 9 % inhibition at 1 micromolar [2]: 48.6% | TACE % inhibition at 1 micromolar [3]: 20.4%

Compound: COc1ccc(S(=O)(=O)C2(C(=O)NO)CCN(Cc3ccc(-c4ccccc4)cc3)CC2)cc1 [Example 88, 1-Biphenyl-4-ylmethyl-4-(4-methoxy-benzenesulfonyl)-piperidine-4-carboxylic acid hydroxamide]
IC50 [1]: 1330 nM | IC50 ([2]; read-out: MMP 9 IC 50): 12.8 nM

Compound: CCN(CC)CCOc1ccc(CC(C)(C(=O)NO)S(=O)(=O)c2ccc(OC)cc2)cc1 (centres unmarked) [Example 21, N-Hydroxy-2-(4-methoxy-benzenesulfonyl)-2-methyl-3-[4-(2-N,N-diethylamino-ethoxy)-phenyl]-propionamide]
IC50 [1]: 318 nM | IC50 ([2]; read-out: MMP 9 IC 50): 13.2 nM | inhibition at 1 µM [3]: 39% | IC50 ([4]; read-out: MMP 13 IC 50): 15.3 nM

Compound: CCCCCCCCS(=O)(=O)C(Cc1ccc(OCCN2CCCCC2)cc1)C(=O)NO (centres unmarked) [Example 46, 2-(octane-1-sulfonyl)-3-[4-(2-piperidin-yl-ethoxy)-phenyl]propionic acid hydroxamide]
MMP 1 % inhibition at 1 micromolar [1]: 78.9% | MMP 9 % inhibition at 1 micromolar [2]: 79.12% | TACE % inhibition at 1 micromolar [3]: 1.4% | MMP 13 % inhibition at 1 micromolar [4]: 84.7%

Compound: CCCC(Cc1ccc(OCCN2CCOCC2)cc1)(C(=O)NO)S(=O)(=O)c1ccc(OC)cc1 (centres unmarked) [Example 35, 2-(4-Methoxy-benzenesulfonyl)-2-[4-(2-morpholin4yl-oxy)-benzyl]-pentanoic acid hydroxyamide]
IC50 [1]: 456 nM | IC50 ([2]; read-out: MMP 9 IC 50): 234 nM | IC50 ([4]; read-out: MMP 13 IC 50): 48.2 nM

Compound: CCOc1ccc(S(=O)(=O)C(C)(Cc2ccc(OCCN(CC)CC)cc2)C(=O)NO)cc1 (centres unmarked) [Example 25, N-Hydroxy-2-(4-ethoxy-benzenesulfonyl)-2-methyl-3-[4-(2-N,N-diethylamino-ethoxy)-phenyl]-propionamide]
IC50 ([2]; read-out: MMP 9 IC 50): 26.7 nM | IC50 ([4]; read-out: MMP 13 IC 50): 8 nM

Compound: COc1ccc(S(=O)(=O)C(C)(Cc2ccc(OCCN3CCCCC3)cc2)C(=O)NO)cc1 (centres unmarked) [Example 17, N-Hydroxy-2-(4-methoxy-benzenesulfonyl)-2-methyl-3-[4-(2-piperidin-1-yl-ethoxy)-phenyl]-proponamide]
IC50 [1]: 239 nM | IC50 ([2]; read-out: MMP 9 IC 50): 8.9 nM | TACE % inhibition at 1 micromolar [3]: 41.00%

Compound: N-Hydroxy-3-methyl-2-phenethylsulfinyl-butyramide [Example 117]
MMP 13 % inhibition at 0.2 μM (HTS) [5]: 7% | TACE % inhibition at 1 mM [3]: 8.1%
